Common to all, as to type: cell-based
One assay relates to cells. The assay can be described thus: Immunoblot analysis of synchronized cells and drug washout (mitotic arrest reversibility). The procedure: Phospho-histone-H3-488 (Ser10) (p-H3-488, Cell Signaling), α-tubulin (Serotec), AurKB (BD Transduction), Anti-Centromere-Antibodies (ACA, Cortex Biochem), cyclin A and B (Santa Cruz Biotechnology), and SECURIN (Gene Tex). BubR1 and Bub1 were from Hongtao Yu. FITC-, Cy3- and Cy5-conjugated secondary antibodies were from Jackson Immuno Research.
Cells were synchronized in G1/S, released into the cell cycle in the presence of DMSO or MI-181, and cell extracts were prepared at several time points post-release. […] Additionally, the MI-182-induced mitotic arrest was reversible, as cells exited mitosis within 2 hours of drug washout (FIG. 9).
On the technique in general: Immunoblotting shows a protein as a band on a membrane.

The next assay has as its system HeLa cells. The assay can be described thus: CellTiter-Glo cell viability, HeLa cells. The settings on record: Homo sapiens, HeLa. The procedure: The cell viability IC50 of each compound was determined using Promega CellTiter-Glo Luminescent Cell Viability Assay kit by measuring the total ATP levels to quantify the number of metabolically active cells upon drug treatment as described in Crouch et al., J Immunol Methods 1993, 160, (1), 81-8. Briefly, the compounds were suspended in DMSO at 10 mM and diluted in 384 plates (20 μl/well in DMSO) in triplicate by a 14-point titration (12 nM to 100 μM). 50 μl of HeLa cells or patient derived glioblastoma cells (HK-309) (2000 cells/well) were then treated with the prepared dilutions of the drugs (0.5 μl) and incubated at 37° C. and 5% CO2. 72 hours later 50 μl of CellTiter-Glo reagent was added to each well followed by a 2 minutes shaking and a 10-minute incubation to lyse the cells. The relative luminescent intensity units (RLU) of each well was measured using a Tecan M1000 microplate reader (Tecan Group Ltd.) with its green filter and 1 second integration time.
Cells used in Example 2 and other examples disclosed herein were cultured as follows: Adherent HeLa cells and patient derived glioblastoma cells were grown with 5% CO2 at 37° C. in F12:DMEM 50:50 medium (Invitrogen) containing 10% FBS and 1% penicillin/streptomycin. To obtain HeLa cells synchronized in mitosis, cycling cells were treated with 2 mM thymidine (Sigma-Aldrich) for eighteen hours, washed three times with PBS, and released into fresh media until they entered mitosis eight hours post-release. Patient-derived glioblastoma cells (HK-309) were collected and grown with approval from the UCLA Institutional Review Board. HK-309 was derived from a recurrent glioblastoma taken from a person. The cells were initially propagated as cancer stem cell-containing spheres in serum-free medium containing basic fibroblast growth factor and epidermal growth factor (Preprotech) as described previously by Visnyei et al., Mol Cancer Ther 2011, 10, (10), 1818-28.
For mitotic arrest IC50s, cells were treated with a twenty-point-2-fold-titration (190 pM to 10 μM) of each compound tested for 20 hours. For cell viability IC50s, cells were treated with a fourteen-point-2-fold-titration (12.2 nM to 100 μM). Mitotic arrest IC50 was determined by measuring the percent G2/M arrest using the Vybrant DyeCycle Green (Invitrogen) assay described above. Cell viability IC50 was determined using the CellTiter-Glo Assay (Promega), which measures total ATP levels. Plates were read with a Tecan M1000 micro-plate reader at 540 nm. The CDD software was used for generating IC50 and IC90 values.

The test system of the next assay is M395. In words: CellTiter-Glo cell viability, M395. The procedure:
(§1) To determine if MI-181 had broad anti-cancer activity, we treated a diverse panel of cancer cell lines including cervical adenocarcinoma (HeLa), breast adenocarcinoma (MCF7), melanoma (M233), osteosarcoma (U205), acute lymphoblastic leukemia (CCRF-CEM), non-small cell lung carcinoma (NCI-H460), and breast adenocarcinoma (MCF7) with MI-181 and determined its cell viability IC50 (FIGS. 13A and 13B). […] Therefore, the efficacy of MI-181 was analyzed in a panel of melanoma cell lines with defined genetic backgrounds including BRAF^V600E and NRAS^Q61L mutations and varied sensitivities to Vemurafenib (BRAF inhibitor) and Trametinib (MEK inhibitor), which are currently used to treat BRAF^V600E melanomas^43,44 (FIG. 10c). […] As a general trend BRAF^V600E cell lines were slightly more sensitive than NRAS^Q61L cell lines and MI-181 was effective in Vemurafenib and Trametinib resistant cell lines (FIG. 10c and Table 3). Finally, we tested the ability of MI-181 to inhibit melanoma colony formation using the M233 and M308 cell lines (both resistant to Vemurafenib). Indeed, MI-181 was a potent inhibitor of colony formation (percentage colony formation for 10 nM MI-181=0.2±0.1 and 0.8±0.7; for 10 nM colchicine=0.1±0.06 and 1.5±0.5; and for 10 nM Vemurafenib=94±7 and 102±5) (FIG. 10d). Thus, MI-181 is a potent inhibitor of melanoma cell lines. […]
(In general: ATP-based viability assays read luminescence as a measure of living cells.)

In assay [1] the test system is breast adenocarcinoma (MCF7). The assay can be described thus: Cell viability, MCF7. The settings on record: Homo sapiens; MCF7 cells. The protocol: as §1
The next assay deals with M376. In words: CellTiter-Glo cell viability, M376. The procedure: as §1
The next assay concerns M375. The assay can be described thus: CellTiter-Glo cell viability, M375. The procedure:
as §1

The subject of assay [2] is panel of melanoma cell lines. In words: Cell viability in a panel of melanoma cell lines. As to conditions: melanoma cell lines incl. BRAF V600E and NRAS Q61L mutations; read-out: IC50 across melanoma panel. The protocol:
as §1

For the next assay, the system named is M296. The assay can be described thus: CellTiter-Glo cell viability, M296. The protocol:
as §1

A further assay relates to M318. The assay can be described thus: CellTiter-Glo cell viability, M318. The protocol: as §1
The test system of a further assay is M397. The assay can be described thus: CellTiter-Glo cell viability, M397. The protocol: as §1
The next assay relates to M368. The assay can be described thus: CellTiter-Glo cell viability, M368. The protocol: as §1
The next assay concerns M202. The assay can be described thus: CellTiter-Glo cell viability, M202. The protocol: as §1

Structures are written as SMILES. Where only a bound is given, the exact number is not on record here.

A word on the IC50: it is the concentration needed to halve the response being measured. Regarding `Cc1cc2nc(/C=C/c3cccnc3)sc2cc1C` [MI-181], the “reversibility of induced mitotic arrest” value in the assay with cells (FIG. 9) was “reversible”. Moreover, the “cell cycle state by immunoblot” value with cells (cells synchronized in G1/S, released in presence of drug) is “arrested in mitosis (p-H3 positive), activated the SAC (BubR1 remained phosphorylated) and stabilized cyclin B while degrading cyclin A”. The “time to exit mitosis after drug washout” value with cells (drug washout) was at most 2 h. Further, the concentration for half-maximal inhibition (IC50) is 17.4 nM in the assay with HeLa cells; 23.4 nM with M395; 11 µM in [1]; 39.7 nM in the assay on M376; 58.2 nM in the assay with M375; 18 to 90 nM in assay [2]. The IC50 in the assay on M296 was found to be 36.7 nM; with M318 it was 54.9 nM; in the assay on M397, 18.1 nM; with M368, 42.1 nM; in the assay with M202, 88.3 nM.

The record behind these values is patent US10913750B2, “Tubulin-binding compounds, compositions and uses related thereto” (The Regents of the University of California, priority 2015, dated 2021).
